Structures can show the parent of a compound that is named as a salt.
Columns and labels:
[1] = tested on: LPA 18:2 level in mouse plasma; experiment: In vitro LPA assay, reduction of LPA 18:2 level in mouse plasma (LC-MS/MS); type: biochemical; settings: 2 hr at 37° C., LPA 18:2 reduction
Description: (§1) Autotaxin (ATX) plays an important role in lysophosphatidic acid (LPA) signaling. An in vitro LPA assay was conducted to determine IC50 values of the test compounds on reduction of LPA 18:2 level in rat or mouse plasma. This example describes the assay data (IC50 value ranges) of exemplary compounds from LPA assays using mouse and rat plasma. Compound GPLG-1690 was assayed as a reference compound.
(§2) The 10 mM DMSO stock solutions of test compounds and 4-fold serial dilutions of the test compounds were prepared at various concentrations. The diluted solutions of the compounds were diluted with 1×PBS (pH 7.5) buffer. 38 μL of rat or mouse plasma samples were mixed with 2 μL of the diluted solutions of the compounds or 2% DMSO solutions in 96-well plate (final 0.1% DMSO). After incubating for 2 hr at 37° C., 120 μL MeOH containing IS (250 ng/mL of LPA 17:0) was added to each well. Mixture was vortexed for 1 min, and then centrifuged for 30 min (4000 rpm, 4° C.). 100 μL supernatant was transferred to a 96-well plate containing 100 μL pure water and the plate was shaken for 10 min. 5 μL supernatant was injected into LC-MS/MS system. No calibration curve will be prepared for LPA 18:2 and all quantifications were performed based on peak area ratios (LPA 18:2/LPA 17:0). For each concentration of compound LPA data were expressed as percentage of reduction (% reduction) using the formula. 100−[((LPA ratio-LPA ratio in control sample after 0 hr incubation)/(LPA ratio in control sample after 2 hr incubation—LPA ratio in control sample after 0 hr incubation))*100]. Data

[2] = tested on: LPA 18:2 level in rat plasma; experiment: In vitro LPA assay, reduction of LPA 18:2 level in rat plasma (LC-MS/MS); type: biochemical; settings: 2 hr at 37° C., LPA 18:2 reduction
Description: as §1, §2

hATX/ENPP2 = hATX/ENPP2 (Homo sapiens, UniProt Q13822); experiment: hATX/ENPP2 biochemical assay using 16:0-LPC as substrate (Amplex Red/choline oxidase/HRP fluorescence); settings: hENPP2 2.5 nM, LPC (16:0) substrate
Summary of the method: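 Enzyme preincubated with compounds 15 min at room temperature in 50 mM Tris-HCl pH 8.0, 140 mM NaCl, 5 mM CaCl2, 0.01% Triton X-100. Reaction started with 80 μM LPC (16:0) stock plus Amplex Red/choline oxidase/HRP mix; fluorescence (ex 530/em 590 nm) read kinetically. IC50 from slope between 60 and 70 min.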

[3] = Mouse PK study (IV and PO); type: in vivo; settings: male, C57BL/6, mouse, plasma, male C57BL/6 mice; for AUC(0-inf): IV 2 mg/kg and PO 10 mg/kg study; for bioavailability / Cmax: po, 10 mg/kg; for bioavailability: IV 2 mg/kg and PO 10 mg/kg, read-out: F % (bioavailability); for Cmax: PO group 10 mg/kg
Description: This example describes the pharmacokinetic (PK) data obtained for various compounds of the present disclosure, from studies using mice. The following PK parameters were calculated: • Bioavailability (F %) were calculated using the linear/log trapezoidal rule • Peak plasma concentrations (Cmax (ng/mL)) were taken directly from the plasma concentration vs. time profiles for the PO group • Area under the curve e.g., the area under the concentration curve from time 0 to infinity (AUC0-inf(ng*h/mL)). Experimental Procedures
After intravenous (IV) and oral (PO) administration at 2 mg/kg and 10 mg/kg to male C57BL/6 mice, respectively, the blood samples were collected at the designed sampling time points. All blood samples were transferred into pre-chilled commercial polyethylene microcentrifuge tubes containing K2-EDTA as an anticoagulant. Samples were processed for plasma by centrifugation. Plasma samples was transferred into polypropylene tubes pre-chilled on dry ice and then quickly frozen over dry ice and kept at −70±10° C. until LC-MS/MS analysis. Mice plasma samples were analyzed using qualified bioanalytical methods based on protein precipitation followed by LC-MS/MS analysis. Individual plasma concentration data of each compound was subjected to noncompartmental pharmacokinetic analysis using Phoenix WinNonlin™. Nominal doses were used for pharmacokinetic parameters calculation.

With `CCc1nc2ccc(-c3cnc(N4CCN(CC(=O)N5CC[C@@H](O)C5)CC4)nc3)cn2c1N(C)c1nc(-c2ccc(F)cc2)c(C#N)s1` [45 (hydrochloride salt), (R)-2-((2-ethyl-6-(2-(4-(2-(3-hydroxypyrrolidin-1-yl)-2-oxoethyl)piperazin-1-yl)pyrimidin-5-yl)imidazo[1,2-a]pyridin-3-yl)(methyl)amino)-4-(4-fluorophenyl)thiazole-5-carbonitrile] the IC50 [1] was 200 to 800 nM and the IC50 [2] was no more than 200 nM.

`CCc1nc2ccc(-c3cnc(N4CCN(CC(=O)N5CC[C@H](O)C5)CC4)nc3)cn2c1N(C)c1nc(-c2ccc(F)cc2)c(C#N)s1` [46 (hydrochloride salt), (S)-2-((2-ethyl-6-(2-(4-(2-(3-hydroxypyrrolidin-1-yl)-2-oxoethyl)piperazin-1-yl)pyrimidin-5-yl)imidazo[1,2-a]pyridin-3-yl)(methyl)amino)-4-(4-fluorophenyl)thiazole-5-carbonitrile] showed an IC50 [1] of 200 to 800 nM and an IC50 [2] of 200 to 800 nM.

Compound `CCc1nc2ccc(-c3cnc(N4CCN(C(=O)C5(C#N)CC5)CC4)nc3)cn2c1N(C)c1nc(-c2ccc(F)cc2)c(C#N)s1` [Compound 1, 2-((6-(2-(4-(1-cyanocyclopropane-1-carbonyl)piperazin-1-yl)pyrimidin-5-yl)-2-ethylimidazo[1,2-a]pyridin-3-yl)(methyl)amino)-4-(4-fluorophenyl) thiazole-5-carbonitrile] has an IC50 (hATX/ENPP2) of no more than 20 nM, an AUC(0-inf) [3] of 27200 ng·h/mL and a bioavailability [3] of 56.5%. For the same compound, the Cmax [3] was 3030 ng/mL.

In the case of `CCc1nc2ccc(-c3cnc(N4CCN(C(=O)C5(O)CC5)CC4)nc3)cn2c1N(C)c1nc(-c2ccc(F)cc2)c(C#N)s1` [Compound 2, 2-((2-ethyl-6-(2-(4-(1-hydroxycyclopropane-1-carbonyl)piperazin-1-yl)pyrimidin-5-yl)imidazo[1,2-a]pyridin-3-yl)(methyl)amino)-4-(4-fluorophenyl)thiazole-5-carbonitrile], the IC50 (hATX/ENPP2) is reported as no more than 20 nM, the AUC(0-inf) [3] is reported as 35100 ng·h/mL and the bioavailability [3] is reported as 61%. The Cmax [3] was 4070 ng/mL.

Compound `CCc1nc2ccc(-c3cnc(C(=O)N4CCCC4)nc3)cn2c1N(C)c1nc(-c2ccc(F)cc2)c(C#N)s1` [Compound 47, 2-((2-ethyl-6-(2-(pyrrolidine-1-carbonyl)pyrimidin-5-yl)imidazo[1,2-a]pyridin-3-yl)(methyl)amino)-4-(4-fluorophenyl)thiazole-5-carbonitrile] has an IC50 (hATX/ENPP2) of 20 to 200 nM, an AUC(0-inf) [3] of 42300 ng·h/mL and a bioavailability [3] of 62.3%. It also gave a Cmax [3] of 4760 ng/mL.

Work on `CCc1nc2ccc(-c3cnc(C4CCN(C(=O)N5CCC5)CC4)nc3)cn2c1N(C)c1nc(-c2ccc(F)cc2)c(C#N)s1` [Compound 101, 2-((6-(2-(1-(azetidine-1-carbonyl)piperidin-4-yl)pyrimidin-5-yl)-2-ethylimidazo[1,2-a]pyridin-3-yl)(methyl)amino)-4-(4-fluorophenyl)thiazole-5-carbonitrile] yielded an IC50 (hATX/ENPP2) of 20 to 200 nM.

For `CCc1nc2ccc(-c3cnc(C4CCN(C(=O)N5CCCC5)CC4)nc3)cn2c1N(C)c1nc(-c2ccc(F)cc2)c(C#N)s1` [Compound 102, 2-((2-ethyl-6-(2-(1-(pyrrolidine-1-carbonyl)piperidin-4-yl)pyrimidin-5-yl)imidazo[1,2-a]pyridin-3-yl)(methyl)amino)-4-(4-fluorophenyl)thiazole-5-carbonitrile], the IC50 (hATX/ENPP2) was 20 to 200 nM.

In the case of `CCc1nc2ccc(-c3cnc(C4CCN(CC(=O)N5CCC5)CC4)nc3)cn2c1N(C)c1nc(-c2ccc(F)cc2)c(C#N)s1` [Compound 103, 2-((6-(2-(1-(2-(azetidin-1-yl)-2-oxoethyl)piperidin-4-yl)pyrimidin-5-yl)-2-ethylimidazo[1,2-a]pyridin-3-yl)(methyl)amino)-4-(4-fluorophenyl)thiazole-5-carbonitrile], the IC50 (hATX/ENPP2) is reported as 20 to 200 nM.

Compound `CCc1nc2ccc(-c3cnc(C4CCN(CC(=O)N5CCCC5)CC4)nc3)cn2c1N(C)c1nc(-c2ccc(F)cc2)c(C#N)s1` [Compound 104, 2-((2-ethyl-6-(2-(1-(2-oxo-2-(pyrrolidin-1-yl)ethyl)piperidin-4-yl)pyrimidin-5-yl)imidazo[1,2-a]pyridin-3-yl)(methyl)amino)-4-(4-fluorophenyl)thiazole-5-carbonitrile] has an IC50 (hATX/ENPP2) of 20 to 200 nM.

`CCc1nc2ccc(-c3cnc(N4CC(NC5CC5)C4)nc3)cn2c1N(C)c1nc(-c2ccc(F)cc2)c(C#N)s1` [Compound 105, 2-((6-(2-(3-(cyclopropylamino)azetidin-1-yl)pyrimidin-5-yl)-2-ethylimidazo[1,2-a]pyridin-3-yl)(methyl)amino)-4-(4-fluorophenyl)thiazole-5-carbonitrile] showed an IC50 (hATX/ENPP2) of 20 to 200 nM.

`CCc1nc2ccc(-c3cnc(N4CC(NC5CCC5)C4)nc3)cn2c1N(C)c1nc(-c2ccc(F)cc2)c(C#N)s1` [Compound 106, 2-((6-(2-(3-(cyclobutylamino)azetidin-1-yl)pyrimidin-5-yl)-2-ethylimidazo[1,2-a]pyridin-3-yl)(methyl)amino)-4-(4-fluorophenyl)thiazole-5-carbonitrile] showed an IC50 (hATX/ENPP2) of 20 to 200 nM.

Compound `CCc1nc2ccc(-c3cnc(N4CCC(NC5CC5)CC4)nc3)cn2c1N(C)c1nc(-c2ccc(F)cc2)c(C#N)s1` [Compound 107, 2-((6-(2-(4-(cyclopropylamino)piperidin-1-yl)pyrimidin-5-yl)-2-ethylimidazo[1,2-a]pyridin-3-yl)(methyl)amino)-4-(4-fluorophenyl)thiazole-5-carbonitrile] has an IC50 (hATX/ENPP2) of 20 to 200 nM.

In the case of `CCc1nc2ccc(-c3cnc(N4CCC(NC5CCC5)CC4)nc3)cn2c1N(C)c1nc(-c2ccc(F)cc2)c(C#N)s1` [Compound 108, 2-((6-(2-(4-(cyclobutylamino)piperidin-1-yl)pyrimidin-5-yl)-2-ethylimidazo[1,2-a]pyridin-3-yl)(methyl)amino)-4-(4-fluorophenyl)thiazole-5-carbonitrile], the IC50 (hATX/ENPP2) is reported as 20 to 200 nM.

With `CCc1nc2ccc(-c3cnc(N4CCN(C(=O)C5CC5)CC4)nc3)cn2c1N(C)c1nc(-c2ccc(F)cc2)c(C#N)s1` [Compound 110, 2-((6-(2-(4-(cyclopropanecarbonyl)piperazin-1-yl)pyrimidin-5-yl)-2-ethylimidazo[1,2-a]pyridin-3-yl)(methyl)amino)-4-(4-fluorophenyl) thiazole-5-carbonitrile] the IC50 (hATX/ENPP2) was 20 to 200 nM.

Work on `CCc1nc2ccc(-c3cnc(N4CCN(C(=O)C5CN(C6CC6)C5)CC4)nc3)cn2c1N(C)c1nc(-c2ccc(F)cc2)c(C#N)s1` [Compound 111, 2-((6-(2-(4-(1-cyclopropylazetidine-3-carbonyl)piperazin-1-yl)pyrimidin-5-yl)-2-ethylimidazo[1,2-a]pyridin-3-yl)(methyl)amino)-4-(4-fluorophenyl)thiazole-5-carbonitrile] yielded an IC50 (hATX/ENPP2) of 20 to 200 nM.

`CCc1nc2ccc(-c3ccc(N4CCN(C(=O)C5CCCC5)CC4)nc3)cn2c1N(C)c1nc(-c2ccc(F)cc2)c(C#N)s1` [Compound 112, 2-((6-(6-(4-(cyclopentanecarbonyl)piperazin-1-yl)pyridin-3-yl)-2-ethylimidazo[1,2-a]pyridin-3-yl)(methyl)amino)-4-(4-fluorophenyl)thiazole-5-carbonitrile] gave an IC50 (hATX/ENPP2) of 20 to 200 nM.

Compound `CCc1nc2ccc(-c3ccc(N4CCC(C(=O)N5CCC5)CC4)nc3)cn2c1N(C)c1nc(-c2ccc(F)cc2)c(C#N)s1` [Compound 122, 2-((6-(6-(4-(azetidine-1-carbonyl)piperidin-1-yl)pyridin-3-yl)-2-ethylimidazo[1,2-a]pyridin-3-yl)(methyl)amino)-4-(4-fluorophenyl)thiazole-5-carbonitrile] has an IC50 (hATX/ENPP2) of no more than 20 nM, an AUC(0-inf) [3] of 47700 ng·h/mL and a bioavailability [3] of 57.8%. For the same compound, the Cmax [3] was 7000 ng/mL.

Reference: patent US11970493B2, “Autotaxin inhibitor compounds” (ILDONG PHARMACEUTICAL CO., LTD., priority 2020, dated 2024)
